Measurements reported in patent US5639887A, “MDR reversal agents” (priority 1995, dated 1997).
≈ marks a conversion by molar mass, not a printed value.

Columns and labels:
[1] = Limit of solubility of bisantrene; format: physicochemical; settings: cell culture medium; cell culture maintenance
[2] = system: bisantrene-resistant human ovarian carcinoma cells S1-B1-20 (OVCAR-3 subclone); test: Screening assay for reversal agents: Difference Score with/without 20 μM bisantrene; format: cell-based; settings: alone vs with 20 μM bisantrene, 3 days, difference in % cell survival; for Difference Score at 1 microM: test agent 1 microM; for Difference Score at 10 microM: test agent 10 microM; for Difference Score at 20 microM: test agent 20 microM
Method: Such cells are sorted by a fluorescent activated cell sorter (FACS; Becton Dickinson Model 440).
Cells, prepared by trypsinization, are plated at 20,000 cells/well in media with and without bisantrene. Then, test agents at varying concentrations are added to the cells. […] Completed plates are incubated for 3 days at 37° C. in a moisturized 7% CO2 atmosphere. […] Dye content/well is read at 540 nm in a microtiter reader. Values are electronically processed, % cell survival compared to untreated cells is computed, and the results are expressed as the difference between these values. Experiments are run in the presence of the test agent alone and the test agent in combination with 20 μM bisantrene. The Difference Score between those two experiments is reported below for 3 different concentrations of test agent.

[3] = system: multiple drug resistance tumor cells; settings: background, resensitizing agents for treatment of cancer; cited from earlier work

Compound	solubility [1] [µM]	Difference Score at 1 microM [2]	Difference Score at 10 microM [2]	Difference Score at 20 microM [2]	toxic side effects in the clinic [3]
C(=N\NC1=NCCN1)/c1c2ccccc2c(/C=N/NC2=NCCN2)c2ccccc12 [bisantrene]	20 (≈ 7.97 µg/mL)				
COc1ccc(C(C#N)(CCCCCN2Cc3cc(OC)c(OC)cc3C2)SC2CCCCC2)cc1OC (stereo not drawn) [Example 86, α-(Cyclohexylthio)-α-(3,4-dimethoxyphenyl)-1,3-dihydro5,6-dimethoxy-2(1H)-isoindoleheptane nitrile]		83	77	29	
CN1CCN(CCCN2c3ccccc3Sc3ccc(C(F)(F)F)cc32)CC1 [trifluoroperizine]					limited by toxic side effects
2-[6-Cyano-6(3,4-dimethoxyphenyl)-6-[(4-methylphenyl)-thio]hexyl]-1,2,3,4-tetrahydo-5-methoxy-7-isoquinoline trifluoromethanesulfonic acid [Example 102]		30	82	82	
2-[7-(4-Fluorophenyl)-7-[(4-methylphenyl)thio]heptyl]-1,2,3,4-tetrahydro-6,7-isoquinoline [Example 95]		28	71	57	
